In patent publication US20150105252A1, “SUBSTITUTED PYRAZOLES AS HERBICIDES” (E I DU PONT DE NEMOURS AND COMPANY, priority 2013, published 2015):

Key:
pigweed [1] = experiment: Test A preemergence; assay type: in vivo, Amaranthus retroflexus; details: 0 to 100 scale
Procedure, shortened: (§1)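 Greenhouse test in loam soil/sand blend; compounds formulated in non-phytotoxic solvent with surfactant, applied as preemergence directed soil spray or postemergence to plants 2–10 cm tall at one- to two-leaf stage. Injury rated visually versus untreated controls after approximately 10 days on a 0 (no effect) to 100 (complete control) scale.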

morningglory [2] = experiment: Test A postemergence; assay type: in vivo, Ipomoea spp.
Procedure, shortened: as §1

corn [3] = experiment: Test A postemergence; assay type: in vivo, Zea mays
From the text: (§2) Seeds of plant species selected from barnyardgrass (Echinochloa crus-galli), kochia (Kochia scoparia), common ragweed (Ambrosia elation), Italian ryegrass (Lolium multiflorum), crabgrass, large (large crabgrass, Digitaria sanguinalis), foxtail, giant (giant foxtail, Setaria faberii), morningglory (Ipomoea spp.), pigweed (redroot pigweed, Amaranthus retroflexus), velvetleaf (Abutilon theophrasti), wheat (Triticum aestivum), and corn (Zea mays) were planted into a blend of loam soil and sand and treated preemergence with a directed soil spray using test chemicals formulated in a non-phytotoxic solvent mixture which included a surfactant.
(§3) At the same time, plants selected from these crop and weed species and also blackgrass (Alopecurus myosuroides), and galium (catchweed bedstraw, Galium aparine) were planted in pots containing the same blend of loam soil and sand and treated with postemergence applications of test chemicals formulated in the same manner. Plants ranged in height from 2 to 10 cm and were in the one- to two-leaf stage for the postemergence treatment. Treated plants and untreated controls were maintained in a greenhouse for approximately 10 days, after which time all treated plants were compared to untreated controls and visually evaluated for injury. Plant response ratings, summarized in Table A, are based on a 0 to 100 scale where 0 is no effect and 100 is complete control. A dash (-) response means no test result.

morningglory [4] = experiment: Test A preemergence; assay type: in vivo, Ipomoea spp.; details: 0 to 100 scale
Procedure, shortened: as §1

crabgrass, large [5] = experiment: Test A postemergence; assay type: in vivo, Digitaria sanguinalis
Procedure, shortened: as §1

velvetleaf [6] = experiment: Test A preemergence; assay type: in vivo, Abutilon theophrasti; details: 0 to 100 scale
Procedure, shortened: as §1

barnyardgrass [7] = experiment: Test A preemergence; assay type: in vivo, Echinochloa crus-galli; details: 0 to 100 scale
Procedure, shortened: as §1

wheat [8] = experiment: Test A postemergence; assay type: in vivo, Triticum aestivum
Procedure, shortened: as §1

barnyardgrass [9] = experiment: Test A postemergence; assay type: in vivo, Echinochloa crus-galli; details: Postemergence
From the text: as §2, §3

corn [10] = experiment: Test A preemergence; assay type: in vivo, Zea mays; details: 0 to 100 scale
Procedure, shortened: as §1

foxtail, giant [11] = experiment: Test A postemergence; assay type: in vivo, Setaria faberii
From the text: as §2, §3

pigweed [12] = experiment: Test A postemergence; assay type: in vivo, Amaranthus retroflexus
From the text: as §2, §3

foxtail, giant [13] = experiment: Test A preemergence; assay type: in vivo, Setaria faberii; details: 0 to 100 scale
Procedure, shortened: as §1

wheat [14] = experiment: Test A preemergence; assay type: in vivo, Triticum aestivum
From the text: as §2, §3

crabgrass, large [15] = experiment: Test A preemergence; assay type: in vivo, Digitaria sanguinalis; details: Preemergence, 0 to 100 scale, 0 no effect, 100 complete control
From the text: as §2, §3

velvetleaf [16] = experiment: Test A postemergence; assay type: in vivo, Abutilon theophrasti
Procedure, shortened: as §1

[17] = Preemergence, 1000 g ai/ha, 0 no effect, 100 complete control
[18] = Postemergence, 1000 g ai/ha, visual rating after approx. 10 days, 0 to 100 scale (0 no effect, 100 complete control)
[19] = 1000 g ai/ha, visual rating after approx. 10 days, 0 to 100 scale (0 no effect, 100 complete control)
[20] = Preemergence, 1000 g ai/ha, 0 to 100 scale, 0 no effect, 100 complete control
[21] = Preemergence, 500 g ai/ha, 0 no effect, 100 complete control
[22] = preemergence, 125 g ai/ha, visual injury, approx. 10 days
[23] = Postemergence, 500 g ai/ha, visual rating after approx. 10 days, 0 to 100 scale (0 no effect, 100 complete control)
[24] = postemergence, 125 g ai/ha, about 10 days, visual rating on 0 to 100 scale (0 no effect, 100 complete control)

## CCc1cc(C(=O)N(C)OC)nn1Cc1cccc(C(F)(F)F)c1 [Compound 66]
Pigweed [1]; [17]
  Pigweed plant response rating: 50
Morningglory [2]; [18]
  Morningglory plant response rating: 50
Corn [3]; [18]
  Corn plant response rating: 30
Morningglory [4]; [17]
  Morningglory plant response rating: 30
crabgrass, large [5]; [18]
  Crabgrass, Large plant response rating: 20
Velvetleaf [6]; [17]
  Velvetleaf plant response rating: 20
Barnyardgrass [7]; [17]
  Barnyardgrass plant response rating: 0
Wheat [8]; [18]
  Wheat plant response rating: 10
Barnyardgrass [9]; [19]
  Barnyardgrass plant response rating: 20
Corn [10]; [17]
  Corn plant response rating: 0
foxtail, giant [11]; [18]
  Foxtail, Giant plant response rating: 40
Pigweed [12]; [18]
  Pigweed plant response rating: 50
foxtail, giant [13]; [17]
  Foxtail, Giant plant response rating: 100
Wheat [14]; [20]
  Wheat plant response rating: 0
Wheat [14]; preemergence, 500 g ai/ha, visual injury after approx. 10 days, 0 to 100 scale (0 no effect, 100 complete control)
  Wheat plant response rating: 0
crabgrass, large [15]; 1000 g ai/ha
  Crabgrass, Large plant response rating: 50
Velvetleaf [16]; [18]
  Velvetleaf plant response rating: 40

## Cc1cc(C(=O)NCC(F)(F)F)nn1Cc1cccc(C(F)(F)F)c1 [Compound 7]
Pigweed [1]; [21]
  Pigweed plant response rating: 90
Pigweed [1]; [22]
  Pigweed plant response rating: 0
Morningglory [2]; [23]
  Morningglory plant response rating: 100
Morningglory [2]; [24]
  Morningglory plant response rating: 40
Corn [3]; [23]
  Corn plant response rating: 30
Corn [3]; [24]
  Corn plant response rating: 10
Morningglory [4]; [21]
  Morningglory plant response rating: 40
Morningglory [4]; [22]
  Morningglory plant response rating: 0
crabgrass, large [5]; [23]
  Crabgrass, Large plant response rating: 40
crabgrass, large [5]; [24]
  Crabgrass, Large plant response rating: 10
Velvetleaf [6]; [21]
  Velvetleaf plant response rating: 10
Velvetleaf [6]; [22]
  Velvetleaf plant response rating: 0
Barnyardgrass [7]; [21]
  Barnyardgrass plant response rating: 40
Barnyardgrass [7]; [22]
  Barnyardgrass plant response rating: 0
Wheat [8]; [23]
  Wheat plant response rating: 20
Wheat [8]; [24]
  Wheat plant response rating: 0
Barnyardgrass [9]; 125 g ai/ha, 0 to 100 scale, 0 no effect, 100 complete control
  Barnyardgrass plant response rating: 0
Barnyardgrass [9]; 500 g ai/ha, visual rating after approx. 10 days, 0 to 100 scale (0 no effect, 100 complete control)
  Barnyardgrass plant response rating: 30
Corn [10]; [21]
  Corn plant response rating: 10
Corn [10]; [22]
  Corn plant response rating: 0
foxtail, giant [11]; [23]
  Foxtail, Giant plant response rating: 30
foxtail, giant [11]; [24]
  Foxtail, Giant plant response rating: 0
Pigweed [12]; [23]
  Pigweed plant response rating: 50
Pigweed [12]; [24]
  Pigweed plant response rating: 30
foxtail, giant [13]; [21]
  Foxtail, Giant plant response rating: 70
foxtail, giant [13]; [22]
  Foxtail, Giant plant response rating: 10
Wheat [14]; preemergence, 125 g ai/ha, visual injury, 0 to 100 scale, approx. 10 days
  Wheat plant response rating: 0
crabgrass, large [15]; 500 g ai/ha
  Crabgrass, Large plant response rating: 90
Velvetleaf [16]; [23]
  Velvetleaf plant response rating: 40
Velvetleaf [16]; [24]
  Velvetleaf plant response rating: 30

## CCc1cc(C(=O)NC(C)C)nn1Cc1cccc(C(F)(F)F)c1 [Compound 47]
Pigweed [1]; [17]
  Pigweed plant response rating: 80
Morningglory [2]; [18]
  Morningglory plant response rating: 100
Corn [3]; [18]
  Corn plant response rating: 40
Morningglory [4]; [17]
  Morningglory plant response rating: 90
crabgrass, large [5]; [18]
  Crabgrass, Large plant response rating: 70
Velvetleaf [6]; [17]
  Velvetleaf plant response rating: 60
Barnyardgrass [7]; [17]
  Barnyardgrass plant response rating: 80
Wheat [8]; [18]
  Wheat plant response rating: 40
Barnyardgrass [9]; [19]
  Barnyardgrass plant response rating: 60
Corn [10]; [17]
  Corn plant response rating: 40
foxtail, giant [11]; [18]
  Foxtail, Giant plant response rating: 80
Pigweed [12]; [18]
  Pigweed plant response rating: 70
foxtail, giant [13]; [17]
  Foxtail, Giant plant response rating: 100
Wheat [14]; [20]
  Wheat plant response rating: 50
crabgrass, large [15]; 1000 g ai/ha
  Crabgrass, Large plant response rating: 100
Velvetleaf [16]; [18]
  Velvetleaf plant response rating: 60

## CCCNC(=O)c1cc(SC)n(Cc2cccc(C(F)(F)F)c2)n1 [Compound 25]
Pigweed [1]; [17]
  Pigweed plant response rating: 0
Morningglory [2]; [18]
  Morningglory plant response rating: 100
Corn [3]; [18]
  Corn plant response rating: 40
Morningglory [4]; [17]
  Morningglory plant response rating: 0
crabgrass, large [5]; [18]
  Crabgrass, Large plant response rating: 30
Velvetleaf [6]; [17]
  Velvetleaf plant response rating: 0
Barnyardgrass [7]; [17]
  Barnyardgrass plant response rating: 0
Wheat [8]; [18]
  Wheat plant response rating: 0
Barnyardgrass [9]; [19]
  Barnyardgrass plant response rating: 10
Corn [10]; [17]
  Corn plant response rating: 0
foxtail, giant [11]; [18]
  Foxtail, Giant plant response rating: 20
Pigweed [12]; [18]
  Pigweed plant response rating: 10
foxtail, giant [13]; [17]
  Foxtail, Giant plant response rating: 10
Wheat [14]; [20]
  Wheat plant response rating: 0
crabgrass, large [15]; 1000 g ai/ha
  Crabgrass, Large plant response rating: 20
Velvetleaf [16]; [18]
  Velvetleaf plant response rating: 50
